Source: patent US4169096A, “Antibiotic compounds” (priority 1977, dated 1979)
Converted amounts (≈) assume the structure as drawn. Counter-ions that a name gives are not always drawn. Like-named read-outs stand apart in the source and are kept apart here.

Assays:
[1] = test system: Pseudomonas aeruginosa A9843; experiment: MIC, serial two-fold agar dilution, aerobic bacteria; format: cell-based; conditions: test medium not given
C. perfringens A9635 [2] = experiment: microbe, parasite or virus in culture; format: cell-based; conditions: Clostridium perfringens, A9635, 18 h
[3] = test system: Escherichia coli Juhl A15119; experiment: MIC, serial two-fold agar dilution, aerobic bacteria; format: cell-based; conditions: JUHLA15119, Nutrient agar (Eiken), read-out: MIC
Proteus morganii A9553 = experiment: as above; format: cell-based; conditions: Morganella morganii, Nutrient agar (Eiken)
[4] = test system: Neisseria meningitidis A21496; experiment: as above; format: cell-based; conditions: GC medium (Eiken)
B. fragilis A20928-1 [5] = experiment: Inoculum size effect on MIC, GAM broth; format: cell-based; conditions: Bacteroides fragilis, A209281, read-out: MIC in GAM broth, inoculum size […] 10^6 cell/ml
S. pyogenes A20201 [6] = experiment: Systemic infection with S. pyogenes in mice; format: in vivo; conditions: Streptococcus pyogenes, A20201, 120 h, just before challenge, determined after 5 days, read-out: PD50
C. perfringens A9635 [7] = experiment: microbe, parasite or virus in culture; format: cell-based, Clostridium perfringens
[8] = test system: Streptococcus pyogenes A9604; experiment: MIC, serial two-fold agar dilution, aerobic bacteria; format: cell-based; conditions: GC medium (Eiken)
[9] = test system: Staphylococcus aureus 209P; experiment: as above; format: cell-based; conditions: Nutrient agar (Eiken)
[10] = test system: Klebsiella pneumoniae A9678; experiment: as above; format: cell-based; conditions: Nutrient agar (Eiken), read-out: MIC
bacterial RNA polymerase = conditions: Antimicrobial Agents and Chemotherapy 1976, page 618; cited from earlier work
[11] = test system: Serratia marcescens A20019; experiment: MIC, serial two-fold agar dilution, aerobic bacteria; format: cell-based; conditions: Nutrient agar (Eiken), read-out: MIC
[12] = test system: Hemophilus influenzae A20188; experiment: as above; format: cell-based; conditions: Haemophilus influenzae, GC medium (Eiken)
B. fragilis A20928-1 [13] = experiment: Bactericidal activity (MIC & MBC); format: cell-based; conditions: Bacteroides fragilis, A209281, inoculum size 2.8 × 10^6 cell/ml
[14] = test system: Staphylococcus aereus Smith; experiment: MIC, serial two-fold agar dilution, aerobic bacteria; format: cell-based; conditions: Nutrient agar (Eiken), read-out: MIC
Sarcina lutea PCI-1001 = experiment: as above; format: cell-based; conditions: Micrococcus luteus, PCI1001; Nutrient agar (Eiken); read-out: MIC
[15] = test system: Neisseria meningitidis A20049; experiment: as above; format: cell-based; conditions: GC medium (Eiken), read-out: MIC
Proteus mirabilis A9554 = experiment: as above; format: cell-based; conditions: Nutrient agar (Eiken)
Micrococcus flavus = experiment: as above; format: cell-based; conditions: Nutrient agar (Eiken), read-out: MIC
[16] = test system: Streptococcus pyogenes A20201; experiment: as above; format: cell-based; conditions: GC medium (Eiken)
[17] = test system: Staphylococcus aureus #52-34; experiment: as above; format: cell-based; conditions: Nutrient agar (Eiken), read-out: MIC
[18] = test system: Escherichia coli K-12 A9632; experiment: as above; conditions: K12A9632
C. perfringens A9635 [19] = experiment: animal or person; format: in vivo, mice; conditions: Clostridium perfringens, A9635, in Mus musculus, 120 h, read-out: PD50
[20] = test system: Bacillus subtilis PCI-219; experiment: MIC, serial two-fold agar dilution, aerobic bacteria; format: cell-based; conditions: PCI219
S. pyogenes A20201 [21] = experiment: Bactericidal activity (MIC & MBC); format: cell-based; conditions: Streptococcus pyogenes, A20201, 18 h
C. perfringens A9635 [22] = experiment: microbe, parasite or virus in culture; format: cell-based; conditions: Clostridium perfringens, A9635, read-out: MIC in GAM broth, inoculum size […] 10^6 cell/ml
B. fragilis A20926 = experiment: Localized infection with B. fragilis in mice; format: in vivo; conditions: for mean score: control 4.2; for sum of score: control 21; for infectivity level: control 100%
in vivo = conditions: po, LD50, po

## CC(/C=C/C(=O)C1=C(O)CNC1=O)=C\C(C)C1OC2(C)OC(C(=O)C3OC32C)C1C (stereo not shown) [Tirandamycin, reference compound]
[1]
  MIC: > 100 µg/mL
C. perfringens A9635 [2]
  MBC: 3.1 µg/mL (≈ 7.43 µM)
[3]
  MIC: > 100 µg/mL
Proteus morganii A9553
  MIC: > 100 µg/mL
[4]
  MIC: 0.8 µg/mL (≈ 1.92 µM)
B. fragilis A20928-1 [5]
  MIC: 6 ng/mL (≈ 0.0144 µM)
S. pyogenes A20201 [6]; po, NA: no activity
  ED50: 50 mg/kg
S. pyogenes A20201 [6]; sc
  ED50: 9.7 mg/kg
C. perfringens A9635 [7]; Clostridium perfringens, A9635, read-out: MIC in GAM agar
  MIC: 0.8 µg/mL (≈ 1.92 µM)
C. perfringens A9635 [7]; inoculum size 7 × 10^6 cell/ml
  MIC in GAM agar: 0.8 µg/mL (≈ 1.92 µM)
[8]
  MIC: 0.8 µg/mL (≈ 1.92 µM)
[9]
  MIC: 100 µg/mL (≈ 240 µM)
[10]
  MIC: > 100 µg/mL
Bacterial RNA polymerase
  inhibition of bacterial RNA polymerase: inhibitor of bacterial RNA polymerase in a manner similar to streptolydigin
[11]
  MIC: > 100 µg/mL
[12]
  MIC: 0.8 µg/mL (≈ 1.92 µM)
B. fragilis A20928-1 [13]; broth
  MIC: 0.025 µg/mL (≈ 0.0599 µM)
B. fragilis A20928-1 [13]; growth of less than 100 colonies per plate, 18 hours at 37° C.
  MBC: > 0.8 µg/mL
[14]
  MIC: > 100 µg/mL
Sarcina lutea PCI-1001
  MIC: 50 µg/mL (≈ 120 µM)
[15]
  MIC: 0.8 µg/mL (≈ 1.92 µM)
Proteus mirabilis A9554
  MIC: > 100 µg/mL
Micrococcus flavus
  MIC: 25 µg/mL (≈ 59.9 µM)
[16]
  MIC: 0.8 µg/mL (≈ 1.92 µM)
[17]
  MIC: 50 µg/mL (≈ 120 µM)
[18]
  MIC: > 100 µg/mL
C. perfringens A9635 [19]; po
  ED50: 60 mg/kg
C. perfringens A9635 [19]; sc
  ED50: 17 mg/kg
[20]
  MIC: 3.1 µg/mL (≈ 7.43 µM)
S. pyogenes A20201 [21]
  MBC: > 12.5 µg/mL
C. perfringens A9635 [22]
  MIC: 12.5 µg/mL (≈ 29.9 µM)

## COC(=O)C1C(C)OC2(C)CC(=O)C3OC12OC(C(C)/C=C(C)/C=C/C(=O)C1=C(O)CNC1=O)C3C (stereo not shown) [Bu-2313B (Na salt)]
B. fragilis A20926; oral, 6.3 × 5 mg/kg
  mean score: 3.4
  sum of score: 17
  infectivity level: 81.0%
B. fragilis A20926; oral, 25 × 5 mg/kg
  mean score: 3.0
  sum of score: 15
  infectivity level: 71.4%
B. fragilis A20926; oral, 100 × 5 mg/kg
  mean score: 2.4
  sum of score: 12
  infectivity level: 57.1%
B. fragilis A20926; oral, […] 5 mg/kg
  mean score: 4.0
  sum of score: 20
  infectivity level: 95.2%
B. fragilis A20926; subcutaneous, 0.8 × 5 mg/kg
  mean score: 4.0
  sum of score: 20
  infectivity level: 95.2%
B. fragilis A20926; subcutaneous, 3.1 × 5 mg/kg
  mean score: 3.4
  sum of score: 17
  infectivity level: 81.0%
B. fragilis A20926; subcutaneous, 50 × 5 mg/kg
  mean score: 2.2
  sum of score: 11
  infectivity level: 52.4%
B. fragilis A20926; subcutaneous, […] 5 mg/kg
  mean score: 2.8
  sum of score: 14
  infectivity level: 66.7%
In vivo
  LD50: 280 mg/kg
Acute toxicity; ip
  LD50: 55 mg/kg
Acute toxicity; sc
  LD50: 200 mg/kg
